Laboratory results reported in patent US6462086B1, “Non-malignant disease treatment with Ras antagonists” (Ramot University Authority for Applied Research and …, priority 1999, dated 2002).

How the values were obtained:
[1] = test system: Ras; assay: Amount of Ras in spleen lymphocytes of FTS-treated SJL mice (Western immunoblot, pan-Ras Ab); assay type: in vivo, mouse; details: FTS 5 mg/kg/day, 48 h following treatment, densitometry
Method: Naive SJL mice received either the vehicle or FTS (10 mg/Kg, i.p., twice a day) for 2 days. The total amounts of Ras were then determined in cell lysates prepared as detailed in (14). Briefly, spleen lymphocytes of the control and of the FTS-treated mice were homogenized in homogenization buffer as detailed previously (14-15). Total cellular protein (50 μg) corresponding to 1.2×10^6 cells, as separated by 12.5% sodium dodecylsulfate polyacrylamide gel electrophoresis (SDS-PAGE) and blotted onto nitrocellulose membranes. hmmunoblotting with pan-Ras Ab (pan-Ras Ab-3, Calbiochem), enhanced chemiluminescense assays (ECL) and densitometric analysis were then performed as detailed previously (14-15). Lymphocytes of vehicle- and of FTS-treated (5 mg/kg/day) SJL mice were obtained from the spleens of mice, 48 h following treatment. The cells where then homogenized and the total amount of Ras was determined by Western immunobloting with pan Ras antibody (14). The apparent amount of Ras in the lymphocytes of the FTS-treated mice was lower than that of the control lymphocytes.

[2] = test system: splenocytes from ICR mice; assay type: cell-based, mouse; details: 10 and 50 μM FTS
Method: An examination was made as to whether the effect of FTS on Ras levels was of functional importance in splenocytes prepared from 2 ICR mice. Stimulation of ^3H-thymidine incorporation into DNA was used as measure of splenocyte proliferation in the presence of lipopolysaccharide (LPS) or concanavalin A (ConA), and in the presence of 0, 10 and 50 μM FTS. The methods used are detailed below. […] Also, FTS had no effect on basal ^3H-thymidine incorporation into DNA. The concentrations of FTS at which inhibition of lymphocyte cell growth were observed reflect expected levels of the drug when given in animals at doses of 5-10 mg/kg.
Mice were killed by cervical dislocation and spleens removed with sterile precautions and placed in disposable plastic Petri dishes containing Dulbecco's phosphate-buffered saline (DPBS). […] Cells from each microculture were harvested on fibroglass filters with multiharvester and counted in liquid scintillation β counter.
Mitogens and antigens were diluted to appropriate concentrations in the incubation medium and added to the wells at the beginning of incubation period to give a final concentration of 1.0 μg/ml lipopolysaccharide (LPS), 1.0 μg/ml Concanavalin A (ConA) or 10 μg/ml beta2-Glycoprotein I (beta2-GPI). Spontaneous proliferation (without mitogen or antigen) was also assessed. […]
The results are expressed as the mean value of stimulation index per group. […]

[3] = test system: Wistar rats; assay type: in vivo
Method: The FTS was dissolved in PBS and administered i.p. 3 times a week to rats according to their assigned groups. Four groups containing 6 rats each were treated as follows. One group received TAA 200 mg/kg i.p. twice a week and i.p. injections of PBS 3 days a week for 12 weeks (cirrhotic controls for the FTS-treated groups). A second group received TAA for 12 weeks and FTS 5 mg/kg, 3 times a week. […] The two control groups consisted of one that received PBS injections without TAA for 12 weeks (normal controls) and a group of 5 rats that received only FTS 5 mg/kg i.p. for 12 weeks to monitor the appearance of adverse effects.
In order to monitor the presence of adverse effects caused by the prolonged administration of FTS, a control group received the Ras antagonist for 12 weeks.

[4] = test system: carotid balloon injury in Wistar rats; assay: Rat carotid balloon injury, intimal hyperplasia (morphometry); assay type: in vivo
Method: Group A: Four rats received daily intraperitoneal injections of FTS (5 mg/Kg) starting from the day of injury induction until sacrifice, 14 days later.
Group B: Four rats received daily intraperitoneal injections of control vehicle starting from the day of injury induction until sacrifice, 14 days later.
Animals were anesthetized by intraperitoneal injection of Ketamin (80 mg/Kg) and Xylazine (5 mg/Kg). […] Briefly, a balloon catheter (2F Fogarty) was passed through the external carotid into the aorta; the balloon was inflated with sufficient water to distend the common carotid artery and then pulled back to the external carotid. This procedure was repeated three times, and then the catheter was removed. After 14 days, the animals were sacrificed and the right and left carotid arteries were taken out and fixed in 4% paraformaldehyde until embedding in Paraffin. The arteries were cut in 10 um sections and stained with H&E and computer-assisted morphometric analyses were performed. The tested parameters were: intimal area, medial area, intimal/medial ratio and lumen area. Additionally, the %CSAN-N (% cross sectional area neointimal-neointamal) was calculated [IEL area-Lumen area]×100/IEL (a measure of the degree to which the IEL area is reduced by neointimal with greater normalization of the effect of changes in vessel wall size. Vasular remodeling process were further evaluated by computing the amount of plaque relative to the EEL (external elastic lamina) area.

With `CC(C)=CCC/C(C)=C/CC/C(C)=C/CSc1ccccc1C(=O)O` [FTS, farnesyl thiosalicylic acid] as the compound, how does the “reduction in the amount of Ras in lymphocytes” value [1] read?
The value was 36±7%.

And the “LPS and ConA induced splenocyte proliferation (stimulation index)” value [2]?
Its value is “significant reduction”.

And the “basal 3H-thymidine incorporation into DNA” value [2]?
The value was “no effect”.

What about the “mortality and adverse effects” value ([3]; FTS 5 mg/kg alone for 12 weeks) of the same compound?
The value was “no mortality or major adverse effects”.

And the “survival after 12 weeks” value ([3]; TAA+FTS, n=6)?
The value was “none of the rats died”.

And the “reduction of intimal area” value ([4]; FTS 5 mg/Kg i.p. daily 14 days vs control)?
The value was 76%.

What about the medial area ([4]; FTS 5 mg/Kg i.p. daily 14 days, control 1.2±0.14) of the same compound?
Its medial area is 0.91 mm^2.

And the Intimal area ([4]; FTS 5 mg/Kg i.p. daily 14 days, control 1.61)?
Its Intimal area is 0.38 mm^2.

And the luminal area ([4]; FTS 5 mg/Kg i.p. daily 14 days, control 2.30)?
Its luminal area is 1.45±0.34 mm^2.

And the “%CSAN-N” value ([4]; FTS 5 mg/Kg i.p. daily 14 days, control 52.4±7.4)?
Its value is 15.5±4.3%.
